Reference: patent publication US11414379B2, “SPAK kinase inhibitors as neuroprotective agents” (United States Government as represented by the Department …, priority 2018, dated 2022)

Columns and labels:
Experiment in all cases: Kinase panel (Dundee profiling)
Format in all cases: biochemical
Settings in all cases: read-out: % residual kinase activity
CDK9-Cyclin T1 = CDK9-Cyclin T1 (Homo sapiens, UniProt P50750)
Protocol: (§1) The kinase selectivity of ZT-1a was further assessed using standard radioisotopic enzymatic assays against a panel of 140 recombinant kinases (Dundee profiling, Table 2) (Bain et al. (2007) The Biochemical journal 408, 297-315). ZT-1a at a concentration of 10 μM inhibited only MAPKAP-K2 activity 85±7% compared to DMSO control, representing high kinase selectivity.
(§2) Referring to Table 2, ZT-1a was tested at 10 and 1 μM against a panel of 140 recombinant kinases in an enzymatic activity-based assay performed by the International Centre for Kinase Profiling in the MRC Protein Phosphorylation and Ubiquitylation Unit. Values represent % residual kinase activity (mean+/−SEM, n=3). Kinases labelled with an asterick* are inhibited ≥50% by ZT-1a.

CHK1 = CHK1 (Homo sapiens, UniProt O14757)
Protocol: as §1, §2

CHK2 = CHK2 (Homo sapiens, UniProt O96017)
Protocol: as §1, §2

CLK2 = CLK2 (Homo sapiens, UniProt P49760)
Protocol: as §1, §2

CSK = CSK (Homo sapiens, UniProt P41240)
Protocol: as §1, §2

DAPK1 = DAPK1 (Homo sapiens, UniProt P53355)
Protocol: as §1, §2

DYRK1A = DYRK1A (Homo sapiens, UniProt Q13627)
Protocol: as §1, §2

DYRK3 = DYRK3 (Homo sapiens, UniProt O43781)
Protocol: as §1, §2

EIF2AK3 = EIF2AK3 (Homo sapiens, UniProt Q9NZJ5)
Protocol: as §1, §2

EPH-B1 = EPH-B1 (Homo sapiens, UniProt P54762)
Protocol: as §1, §2

HIPK1 = HIPK1 (Homo sapiens, UniProt Q86Z02)
Protocol: as §1, §2

HIPK3 = HIPK3 (Homo sapiens, UniProt Q9H422)
Protocol: as §1, §2

IGF-1R = IGF-1R (Homo sapiens, UniProt P08069)
Protocol: as §1, §2

IKKb = IKKb (Homo sapiens, UniProt O14920)
Protocol: as §1, §2

IRAK4 = IRAK4 (Homo sapiens, UniProt Q9NWZ3)
Protocol: as §1, §2

MAP4K3 = MAP4K3 (Homo sapiens, UniProt Q8IVH8)
Protocol: as §1, §2

MARK2 = MARK2 (Homo sapiens, UniProt Q7KZI7)
Protocol: as §1, §2

MINK1 = MINK1 (Homo sapiens, UniProt Q8N4C8)
Protocol: as §1, §2

MST3 = MST3 (Homo sapiens, UniProt Q9Y6E0)
Protocol: as §1, §2

PAK4 = PAK4 (Homo sapiens, UniProt O96013)
Protocol: as §1, §2

PAK6 = PAK6 (Homo sapiens, UniProt Q9NQU5)
Protocol: as §1, §2

PDK1 = PDK1 (Homo sapiens, UniProt O15530)
Protocol: as §1, §2

PINK = PINK (Tribolium castaneum, UniProt D6WMX4)
Protocol: as §1, §2

PRK2 = PRK2 (Homo sapiens, UniProt Q16513)
Protocol: as §1, §2

SRPK1 = SRPK1 (Homo sapiens, UniProt Q96SB4)
Protocol: as §1, §2

STK33 = STK33 (Homo sapiens, UniProt Q9BYT3)
Protocol: as §1, §2

SmMLCK = SmMLCK (Homo sapiens, UniProt Q15746)
Protocol: as §1, §2

Src = Src (Homo sapiens, UniProt P12931)
Protocol: as §1, §2

TLK1 = TLK1 (Homo sapiens, UniProt Q9UKI8)
Protocol: as §1, §2

TSSK1 = TSSK1 (Homo sapiens, UniProt Q9BXA7)
Protocol: as §1, §2

TTBK1 = TTBK1 (Homo sapiens, UniProt Q5TCY1)
Protocol: as §1, §2

p38a MAPK = p38a MAPK (Homo sapiens, UniProt Q16539)
Protocol: as §1, §2

Chain of SmMLCK (Q15746 923-1914): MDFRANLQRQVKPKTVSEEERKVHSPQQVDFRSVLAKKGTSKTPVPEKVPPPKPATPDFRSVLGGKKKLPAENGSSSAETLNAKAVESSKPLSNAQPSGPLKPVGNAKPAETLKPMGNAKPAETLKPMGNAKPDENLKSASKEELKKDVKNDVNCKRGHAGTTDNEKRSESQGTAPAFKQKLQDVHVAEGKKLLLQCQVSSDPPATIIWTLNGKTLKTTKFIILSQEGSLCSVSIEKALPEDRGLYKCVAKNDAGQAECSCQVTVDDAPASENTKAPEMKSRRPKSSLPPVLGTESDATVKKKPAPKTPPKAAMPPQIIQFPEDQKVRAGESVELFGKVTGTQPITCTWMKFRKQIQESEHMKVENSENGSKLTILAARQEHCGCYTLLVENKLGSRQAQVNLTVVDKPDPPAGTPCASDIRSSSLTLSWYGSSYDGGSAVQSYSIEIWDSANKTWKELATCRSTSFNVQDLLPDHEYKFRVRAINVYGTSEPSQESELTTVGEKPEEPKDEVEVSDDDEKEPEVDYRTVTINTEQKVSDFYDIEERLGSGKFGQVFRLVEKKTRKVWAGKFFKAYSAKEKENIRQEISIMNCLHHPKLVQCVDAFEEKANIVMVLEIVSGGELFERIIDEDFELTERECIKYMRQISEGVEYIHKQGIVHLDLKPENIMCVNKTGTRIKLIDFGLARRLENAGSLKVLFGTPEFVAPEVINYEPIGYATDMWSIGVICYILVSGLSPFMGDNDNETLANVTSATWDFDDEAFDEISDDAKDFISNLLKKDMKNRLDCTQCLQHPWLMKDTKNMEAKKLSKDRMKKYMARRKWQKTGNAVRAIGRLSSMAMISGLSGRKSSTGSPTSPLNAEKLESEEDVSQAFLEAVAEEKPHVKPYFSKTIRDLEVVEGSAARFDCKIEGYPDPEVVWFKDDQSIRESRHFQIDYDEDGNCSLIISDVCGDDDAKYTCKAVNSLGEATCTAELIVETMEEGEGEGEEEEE
Chain of CHK2 (O96017 whole entry, species assumed): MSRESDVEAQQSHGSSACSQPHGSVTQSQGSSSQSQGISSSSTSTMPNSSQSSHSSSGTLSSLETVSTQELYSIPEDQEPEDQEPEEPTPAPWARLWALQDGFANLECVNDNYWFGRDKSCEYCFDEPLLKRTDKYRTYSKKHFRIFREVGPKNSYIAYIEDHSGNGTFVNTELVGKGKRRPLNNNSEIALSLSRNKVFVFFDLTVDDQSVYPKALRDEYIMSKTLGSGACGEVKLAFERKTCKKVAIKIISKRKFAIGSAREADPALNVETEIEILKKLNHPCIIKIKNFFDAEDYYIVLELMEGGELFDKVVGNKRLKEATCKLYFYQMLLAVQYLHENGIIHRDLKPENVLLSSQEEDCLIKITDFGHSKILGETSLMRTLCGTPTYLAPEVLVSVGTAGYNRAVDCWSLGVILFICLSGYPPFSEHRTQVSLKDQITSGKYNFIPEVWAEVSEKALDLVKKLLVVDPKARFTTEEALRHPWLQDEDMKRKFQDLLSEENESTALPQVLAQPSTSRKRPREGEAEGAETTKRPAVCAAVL
Chain of HIPK1 (Q86Z02 whole entry, species assumed): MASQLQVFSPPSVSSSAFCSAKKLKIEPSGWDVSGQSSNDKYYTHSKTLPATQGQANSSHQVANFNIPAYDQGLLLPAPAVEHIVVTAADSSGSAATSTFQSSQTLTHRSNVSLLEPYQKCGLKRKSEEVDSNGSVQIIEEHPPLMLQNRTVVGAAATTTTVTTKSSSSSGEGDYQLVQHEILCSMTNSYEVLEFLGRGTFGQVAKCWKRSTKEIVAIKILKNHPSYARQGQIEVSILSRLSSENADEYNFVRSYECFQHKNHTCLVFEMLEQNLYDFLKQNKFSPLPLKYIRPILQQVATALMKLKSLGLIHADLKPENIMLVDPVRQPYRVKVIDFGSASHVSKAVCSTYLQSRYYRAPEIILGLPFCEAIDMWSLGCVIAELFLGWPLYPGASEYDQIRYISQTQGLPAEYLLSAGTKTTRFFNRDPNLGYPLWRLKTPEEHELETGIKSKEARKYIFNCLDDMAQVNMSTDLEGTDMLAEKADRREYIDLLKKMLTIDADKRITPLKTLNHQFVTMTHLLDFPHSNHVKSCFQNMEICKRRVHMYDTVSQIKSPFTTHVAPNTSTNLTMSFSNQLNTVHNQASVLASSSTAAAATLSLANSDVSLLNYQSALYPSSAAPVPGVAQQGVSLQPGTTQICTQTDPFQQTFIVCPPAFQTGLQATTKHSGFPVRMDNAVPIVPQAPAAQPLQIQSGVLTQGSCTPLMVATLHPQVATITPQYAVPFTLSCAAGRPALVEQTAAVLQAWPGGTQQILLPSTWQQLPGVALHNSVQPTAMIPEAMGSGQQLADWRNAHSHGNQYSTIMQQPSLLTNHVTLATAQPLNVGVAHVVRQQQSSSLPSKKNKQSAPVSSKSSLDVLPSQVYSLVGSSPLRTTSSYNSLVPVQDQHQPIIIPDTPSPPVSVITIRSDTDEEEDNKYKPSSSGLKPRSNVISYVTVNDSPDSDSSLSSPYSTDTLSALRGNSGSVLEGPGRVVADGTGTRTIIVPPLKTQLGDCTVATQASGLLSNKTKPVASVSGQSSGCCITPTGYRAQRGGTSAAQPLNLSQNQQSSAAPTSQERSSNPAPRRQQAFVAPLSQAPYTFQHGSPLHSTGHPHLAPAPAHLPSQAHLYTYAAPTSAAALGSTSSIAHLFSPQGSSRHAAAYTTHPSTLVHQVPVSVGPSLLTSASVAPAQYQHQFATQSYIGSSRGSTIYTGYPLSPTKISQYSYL
Chain of PINK (D6WMX4 6-570): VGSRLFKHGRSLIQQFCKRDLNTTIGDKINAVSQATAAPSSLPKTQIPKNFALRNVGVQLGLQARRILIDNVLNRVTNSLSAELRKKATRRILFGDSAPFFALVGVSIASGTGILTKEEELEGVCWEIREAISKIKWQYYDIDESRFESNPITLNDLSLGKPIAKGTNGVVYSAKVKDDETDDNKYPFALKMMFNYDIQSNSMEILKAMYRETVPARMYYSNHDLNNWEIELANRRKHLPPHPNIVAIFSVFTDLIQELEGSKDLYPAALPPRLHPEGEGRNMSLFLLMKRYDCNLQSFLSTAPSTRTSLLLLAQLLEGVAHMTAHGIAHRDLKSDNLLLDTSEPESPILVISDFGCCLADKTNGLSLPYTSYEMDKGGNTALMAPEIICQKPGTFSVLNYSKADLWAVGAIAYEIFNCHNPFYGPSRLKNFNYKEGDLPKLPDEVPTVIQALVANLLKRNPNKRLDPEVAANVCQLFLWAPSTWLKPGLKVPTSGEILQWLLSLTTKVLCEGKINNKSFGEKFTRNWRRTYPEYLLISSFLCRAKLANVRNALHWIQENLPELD
Chain of MAP4K3 (Q8IVH8 whole entry, species assumed): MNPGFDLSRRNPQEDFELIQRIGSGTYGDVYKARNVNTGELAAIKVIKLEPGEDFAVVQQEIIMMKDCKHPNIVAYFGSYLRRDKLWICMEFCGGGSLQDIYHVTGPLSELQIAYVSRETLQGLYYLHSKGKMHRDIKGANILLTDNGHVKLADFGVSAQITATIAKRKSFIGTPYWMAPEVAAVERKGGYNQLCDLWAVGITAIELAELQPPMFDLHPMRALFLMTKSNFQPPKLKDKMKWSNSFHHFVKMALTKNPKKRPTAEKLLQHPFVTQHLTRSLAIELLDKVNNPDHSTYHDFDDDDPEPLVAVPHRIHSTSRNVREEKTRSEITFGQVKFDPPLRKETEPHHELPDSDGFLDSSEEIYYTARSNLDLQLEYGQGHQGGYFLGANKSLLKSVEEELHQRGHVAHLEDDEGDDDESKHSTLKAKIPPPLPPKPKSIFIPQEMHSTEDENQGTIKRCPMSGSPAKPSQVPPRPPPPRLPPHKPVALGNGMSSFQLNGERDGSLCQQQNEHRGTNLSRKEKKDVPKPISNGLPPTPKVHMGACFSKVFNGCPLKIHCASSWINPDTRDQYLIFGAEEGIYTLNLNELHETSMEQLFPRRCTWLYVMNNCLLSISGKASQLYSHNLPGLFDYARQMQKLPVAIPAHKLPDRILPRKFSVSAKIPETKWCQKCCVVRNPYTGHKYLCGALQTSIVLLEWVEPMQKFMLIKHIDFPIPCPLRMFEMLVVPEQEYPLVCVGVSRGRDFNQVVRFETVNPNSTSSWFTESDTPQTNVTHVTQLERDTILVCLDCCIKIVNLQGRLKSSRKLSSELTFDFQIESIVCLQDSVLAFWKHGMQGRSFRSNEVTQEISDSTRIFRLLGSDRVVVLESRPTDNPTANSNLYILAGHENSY
Chain of IKKb (O14920 whole entry, species assumed): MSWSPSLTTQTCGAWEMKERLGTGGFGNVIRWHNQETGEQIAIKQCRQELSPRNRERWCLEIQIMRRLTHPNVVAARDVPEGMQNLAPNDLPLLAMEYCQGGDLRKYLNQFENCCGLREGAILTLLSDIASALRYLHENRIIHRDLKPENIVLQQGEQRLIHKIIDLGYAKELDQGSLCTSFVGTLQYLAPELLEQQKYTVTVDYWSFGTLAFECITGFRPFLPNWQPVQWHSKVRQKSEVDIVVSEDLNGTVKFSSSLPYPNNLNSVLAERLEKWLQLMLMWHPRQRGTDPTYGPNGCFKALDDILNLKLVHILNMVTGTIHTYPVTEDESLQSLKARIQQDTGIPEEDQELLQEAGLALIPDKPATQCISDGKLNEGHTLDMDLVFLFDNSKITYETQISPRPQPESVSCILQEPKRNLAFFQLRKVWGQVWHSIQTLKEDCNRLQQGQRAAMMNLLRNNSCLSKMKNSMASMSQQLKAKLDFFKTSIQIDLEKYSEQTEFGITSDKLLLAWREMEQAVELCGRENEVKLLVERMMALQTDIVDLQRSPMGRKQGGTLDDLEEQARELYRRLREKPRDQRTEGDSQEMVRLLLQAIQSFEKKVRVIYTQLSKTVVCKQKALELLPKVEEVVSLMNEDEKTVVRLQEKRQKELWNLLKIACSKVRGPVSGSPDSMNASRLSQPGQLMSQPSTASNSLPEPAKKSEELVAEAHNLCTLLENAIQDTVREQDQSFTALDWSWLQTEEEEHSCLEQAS

Q: With `Cc1cc(C(C#N)c2ccc(Cl)cc2)c(Cl)cc1NC(=O)c1cc(Cl)ccc1O` (stereo not shown) [ZT-1a, 5-chloro-N-(5-chloro-4-((4-chlorophenyl)(cyano)methyl)-2-methylphenyl)-2-hydroxy-benzamide] as the compound, how does the remaining activity at 1 µM (CDK9-Cyclin T1; 1 μM) read?
A: 104%

Q: What about the remaining activity at 10 µM (CDK9-Cyclin T1; 10 μM) of the same compound?
A: 108 ± 1%

Q: What about the remaining activity at 1 µM (CHK1; 1 μM) of the same compound?
A: 111 ± 11%

Q: And the remaining activity at 10 µM (CHK1; 10 μM)?
A: 109 ± 8%

Q: And the remaining activity at 1 µM (CHK2; 1 μM)?
A: 106 ± 1%

Q: And the remaining activity at 10 µM (CHK2; 10 μM)?
A: 68 ± 6%

Q: And the remaining activity at 1 µM (CLK2; 1 μM)?
A: 68 ± 12%

Q: What about the remaining activity at 10 µM (CLK2; 10 μM) of the same compound?
A: 33 ± 45%

Q: What about the remaining activity at 1 µM (CSK; 1 μM) of the same compound?
A: 96 ± 8%

Q: What about the remaining activity at 10 µM (CSK; 10 μM) of the same compound?
A: 106 ± 29%

Q: And the remaining activity at 1 µM (DAPK1; 1 μM)?
A: 131 ± 8%

Q: And the remaining activity at 10 µM (DAPK1; 10 μM)?
A: 159 ± 11%

Q: What about the remaining activity at 1 µM (DYRK1A; 1 μM) of the same compound?
A: 119 ± 7%

Q: And the remaining activity at 10 µM (DYRK1A; 10 μM)?
A: 103 ± 1%

Q: And the remaining activity at 1 µM (DYRK3; 1 μM)?
A: 113 ± 6%

Q: What about the remaining activity at 10 µM (DYRK3; 10 μM) of the same compound?
A: 56 ± 15%

Q: And the remaining activity at 1 µM (EIF2AK3; 1 μM)?
A: 114 ± 2%

Q: And the remaining activity at 10 µM (EIF2AK3; 10 μM)?
A: 100 ± 3%

Q: And the remaining activity at 1 µM (EPH-B1; 1 μM)?
A: 77 ± 15%

Q: And the remaining activity at 10 µM (EPH-B1; 10 μM)?
A: 80 ± 19%

Q: What about the remaining activity at 1 µM (HIPK1; 1 μM) of the same compound?
A: 98 ± 13%

Q: And the remaining activity at 10 µM (HIPK1; 10 μM)?
A: 90 ± 4%

Q: What about the remaining activity at 1 µM (HIPK3; 1 μM) of the same compound?
A: 84 ± 3%

Q: And the remaining activity at 10 µM (HIPK3; 10 μM)?
A: 76 ± 2%

Q: What about the remaining activity at 1 µM (IGF-1R; 1 μM) of the same compound?
A: 145 ± 2%

Q: And the remaining activity at 10 µM (IGF-1R; 10 μM)?
A: 123 ± 3%

Q: And the remaining activity at 1 µM (IKKb; 1 μM)?
A: 101%

Q: And the remaining activity at 10 µM (IKKb; 10 μM)?
A: 78 ± 3%

Q: And the remaining activity at 1 µM (IRAK4; 1 μM)?
A: 127%

Q: What about the remaining activity at 10 µM (IRAK4; 10 μM) of the same compound?
A: 127 ± 11%

Q: What about the remaining activity at 1 µM (MAP4K3; 1 μM) of the same compound?
A: 134 ± 5%

Q: What about the remaining activity at 10 µM (MAP4K3; 10 μM) of the same compound?
A: 88 ± 2%

Q: And the remaining activity at 1 µM (MARK2; 1 μM)?
A: 103 ± 8%

Q: And the remaining activity at 10 µM (MARK2; 10 μM)?
A: 89 ± 15%

Q: What about the remaining activity at 1 µM (MINK1; 1 μM) of the same compound?
A: 107 ± 5%

Q: And the remaining activity at 10 µM (MINK1; 10 μM)?
A: 108 ± 6%

Q: And the remaining activity at 1 µM (MST3; 1 μM)?
A: 109 ± 8%

Q: And the remaining activity at 10 µM (MST3; 10 μM)?
A: 113 ± 15%

Q: What about the remaining activity at 1 µM (PAK4; 1 μM) of the same compound?
A: 81 ± 16%

Q: What about the remaining activity at 10 µM (PAK4; 10 μM) of the same compound?
A: 51 ± 3%

Q: And the remaining activity at 1 µM (PAK6; 1 μM)?
A: 69 ± 2%

Q: What about the remaining activity at 10 µM (PAK6; 10 μM) of the same compound?
A: 75 ± 4%

Q: What about the remaining activity at 1 µM (PDK1; 1 μM) of the same compound?
A: 92 ± 6%

Q: What about the remaining activity at 10 µM (PDK1; 10 μM) of the same compound?
A: 69 ± 17%

Q: And the remaining activity at 1 µM (PINK; 1 μM)?
A: 101 ± 13%

Q: What about the remaining activity at 10 µM (PINK; 10 μM) of the same compound?
A: 59 ± 4%

Q: What about the remaining activity at 1 µM (PRK2; 1 μM) of the same compound?
A: 118 ± 4%

Q: What about the remaining activity at 10 µM (PRK2; 10 μM) of the same compound?
A: 120 ± 7%

Q: And the remaining activity at 1 µM (SRPK1; 1 μM)?
A: 104 ± 5%

Q: What about the remaining activity at 10 µM (SRPK1; 10 μM) of the same compound?
A: 73 ± 20%

Q: What about the remaining activity at 1 µM (STK33; 1 μM) of the same compound?
A: 114 ± 7%

Q: What about the remaining activity at 10 µM (STK33; 10 μM) of the same compound?
A: 100 ± 5%

Q: What about the remaining activity at 1 µM (SmMLCK; 1 μM) of the same compound?
A: 99 ± 3%

Q: What about the remaining activity at 10 µM (SmMLCK; 10 μM) of the same compound?
A: 98 ± 9%

Q: What about the remaining activity at 1 µM (Src; 1 μM) of the same compound?
A: 107 ± 4%

Q: And the remaining activity at 10 µM (Src; 10 μM)?
A: 84 ± 13%

Q: What about the remaining activity at 1 µM (TLK1; 1 μM) of the same compound?
A: 130 ± 13%

Q: What about the remaining activity at 10 µM (TLK1; 10 μM) of the same compound?
A: 124 ± 4%

Q: What about the remaining activity at 1 µM (TSSK1; 1 μM) of the same compound?
A: 99 ± 2%

Q: What about the remaining activity at 10 µM (TSSK1; 10 μM) of the same compound?
A: 74 ± 6%

Q: And the remaining activity at 1 µM (TTBK1; 1 μM)?
A: 119 ± 5%

Q: And the remaining activity at 10 µM (TTBK1; 10 μM)?
A: 102 ± 2%

Q: And the remaining activity at 1 µM (p38a MAPK; 1 μM)?
A: 128 ± 7%

Q: What about the remaining activity at 10 µM (p38a MAPK; 10 μM) of the same compound?
A: 113 ± 2%
